Earlier results on two compounds are cited in patent publication US20130184245A1, “ENDOMETRIOSIS TREATMENT” (DRUGTECH CORPORATION, priority 2007, published 2013).

Read-outs that look alike come from different tables or passages of the source.

In data set [1] the test system is pelvic endometriosis.
Data set [2] relates to pelvic endometriosis. The settings on record: vaginal ring containing 1000 mg danazol.
Data set [3] relates to deeply infiltrating endometriosis.
Test in data set [4]: not given
This is another data set of the same source.

The conditions of data set [5]: vaginal suppository 100 mg/day versus per os 400 mg/day.
In data set [6] the test system is women with endometriosis and chronic pelvic pain symptoms. The following applies: intravaginal danazol therapy, 22 women.
For data set [7] the following is noted: intravaginal danazol therapy.
Data set [8] relates to women with endometriosis. The following applies: intravaginal gel, 100 to 200 mg/day.
The conditions of data set [9]: intravaginal gel, 100 to 200 mg/day.
The test system of data set [10] is endometriosis. The following applies: daily administration of 5 mg danazol in suppository form.
The subject of data set [11] is women with endometriosis.

For the compound `C#C[C@]1(O)CC[C@H]2[C@@H]3CCC4=Cc5oncc5C[C@]4(C)[C@H]3CC[C@@]21C` [danazol, 17α-ethynyl-17β-hydroxy-4-androsteno[2,3-d]-isoxazole], the “women in whom conception was enabled while the ring was in place” value in data set [1] (of 35 infertile women, vaginal ring 2000 to 3500 mg danazol) is on record as 13. In addition, in data set [1] (vaginal ring containing 2000 to 3500 mg danazol, 35 infertile women), the “effect on dysmenorrhea and pelvic endometriosis” value is “reduced dysmenorrhea and pelvic endometriosis”. In data set [2], the “efficacy in treating pelvic endometriosis” value was “very effective”. The serum danazol levels result (danazol 400 mg/day per os) is “exceeded 100 ng/ml”. Also, the serum danazol levels result (topical danazol administration (vaginal ring 1000 mg)) is “undetectable”. Moreover, in data set [3] (out of 31 infertile women with deeply infiltrating endometriosis, vaginal ring 1500 mg), the “women in whom ovulation and conception occurred” value is listed as 17. In addition, in data set [3] (vaginal ring containing 1500 mg danazol), the “time to elimination of dysmenorrhea” value is at most 3 months. Also, the serum danazol concentrations result in data set [4] (oral therapy with danazol at 400 mg/day) is “high”. Besides, the serum danazol concentrations result in [4] (vaginal danazol therapy (ring 1500 mg)) was “undetectable”. Also, in data set [5], the “danazol concentrations in the ovary and uterus, vaginal versus oral administration” value was “comparable”; the “serum danazol concentration, vaginal versus oral administration” value is “much lower”. Further, in data set [6], the “management of chronic pelvic pain secondary to pelvic endometriosis” value is on record as “effective” and the “side effect profile, systemic androgen-like effects” value is “paucity of systemic androgen-like effects”. In addition, the “peripheral levels of danazol” value in data set [7] is “undetectable”. In data set [8], the “effect on chronic pelvic pain” value is on record as “significantly reduced” and the “systemic androgenic side effects” value is listed as “lack of systemic androgenic side effects”. Moreover, the “plasma levels of danazol” value in [9] is on record as “low to undetectable”. Also, in [10], the “effect on dyspareunia and dysmenorrhea” value was “remission”.
As to `C#C[C@]1(O)CC[C@H]2[C@@H]3CCC4=CC(=O)CCC4=C3C=C[C@@]21CC` [gestrinone, ethylnorgestrienone], the “side effects such as seborrhea, acne and weight gain, versus oral” value in [11] (vaginal administration) was “significantly lower”. In data set [11] (vaginal route, women with endometriosis), the “effectiveness in reducing dyspareunia and dysmenorrhea versus oral gestrinone therapy” value was “equally effective”.
